Earlier results as cited in US20080102081A1, “Preparations and applications for treatment of high cholesterol levels” (priority 2006, published 2008).

Assays:
[1] = clinical trials, patients at lower dosages
[2] = denominator of prescription volume

elevation of hepatic enzyme activity [1]	SMILES	fatal rhabdomyolysis rate [2]
0.7%	CC(C)c1c(C(=O)Nc2ccccc2)c(-c2ccccc2)c(-c2ccc(F)cc2)n1CC[C@@H](O)C[C@@H](O)CC(=O)O [Atorvastatin]	
	COCc1c(C(C)C)nc(C(C)C)c(/C=C/[C@@H](O)C[C@@H](O)CC(=O)O)c1-c1ccc(F)cc1 [Cerivastatin]	3.16 fatal cases/million prescriptions
